Results reported in patent US4548922A, “Drug administration” (Beth Israel Hospital, priority 1983, dated 1985).

Assay: k' factor value (hydrophobicity) by high-performance liquid column chromatography on octadecylsilane column
Type: physicochemical
Settings: unconjugated steroid; 75% methanol in water, apparent pH 5.0, octadecylsilane column
Procedure: Preferably the steroid used in the invention is characterized in that the unconjugated derivative of the steroid is retained on a hydrophobic column for a length of time sufficient to produce a k' factor value of at least 7, the k' factor value being obtained by subjecting a monomeric solution of 1 mg/ml of such steroid derivative to high-performance liquid column chromatography at 3,000 psi, using a 250×4.6 mm column having octadecylsilane-coated 5 μm micro silica particles as the stationary phase and a mobile phase, delivered at 1.0 ml/min., consisting of 75% methanol in water, v/v, buffered with 0.005 M KH2 PO4 /H3 PO4 to give an apparent pH value, as measured using a glass electrode, of 5.0, the k' factor value being defined by k'=(tr -t0)/t0, where t0 is the retention time in the column of the solvent front and tr is the retention time in the column of the steroid derivative as measured by obtaining the elution profile of the steroid derivative by absorbance at 210 nm.
The structure of the steroid molecule affects its chemical properties and thus its functioning as a drug transporting molecule. We believe that all of the steroid molecules used in the invention facilitate transport by self-associating to form reversed micelles within the membrane across which the drug is being transported; these reversed micelles, it is believed, function as pores, allowing the drug to pass through. A measure of the ability of a given steroid molecule's ability to form such reversed micelles is the hydrophobicity of the unconjugated form of the molecule, a property which can be quantified using the k' factor value, which is computed by observing the steroid's retention time in a high-performance liquid chromatography (HPLC) column under the conditions described above. As mentioned above, the k' factor value of the unconjugated derivative of the steroid should be at least 7 for the steroid to be suitable in the therapeutic compositions of the invention.

CC(=O)O[C@@H]1[C@H]2[C@H](C)[C@H](O)CC[C@]2(C)[C@@H]2CC[C@H]3/C(=C(\CCC=C(C)C)C(=O)O)[C@@H](OC(C)=O)C[C@]3(C)[C@@]2(C)[C@H]1O [cephalosporin P1]
k' factor value: 9.5

CC(=O)O[C@H]1C[C@@]2(C)[C@@H](CC[C@H]3[C@@]4(C)C=CC(=O)[C@@H](C)[C@@H]4[C@H](OC(C)=O)C(=O)[C@@]32C)/C1=C(\CCC=C(C)C)C(=O)O [helvolic acid]
k' factor value: 4.7

C[C@H](CCC(=O)O)[C@H]1CC[C@H]2[C@@H]3[C@@H](O)C[C@@H]4C[C@H](O)CC[C@]4(C)[C@H]3CC[C@]12C [ursodeoxycholic acid]
k' factor value: 4.7
